{"source": "ChEMBL document CHEMBL1153039", "about": "“Allosteric modulators of the adenosine A1 receptor: synthesis and pharmacological evaluation of 4-substituted 2-amino-3-benzoylthiophenes” (J Med Chem, 2009)", "key": {"[1]": {"molecular_target": "T1, Adenosine receptor A1 (Homo sapiens) (UniProt P30542)", "T1 sequence (whole entry)": "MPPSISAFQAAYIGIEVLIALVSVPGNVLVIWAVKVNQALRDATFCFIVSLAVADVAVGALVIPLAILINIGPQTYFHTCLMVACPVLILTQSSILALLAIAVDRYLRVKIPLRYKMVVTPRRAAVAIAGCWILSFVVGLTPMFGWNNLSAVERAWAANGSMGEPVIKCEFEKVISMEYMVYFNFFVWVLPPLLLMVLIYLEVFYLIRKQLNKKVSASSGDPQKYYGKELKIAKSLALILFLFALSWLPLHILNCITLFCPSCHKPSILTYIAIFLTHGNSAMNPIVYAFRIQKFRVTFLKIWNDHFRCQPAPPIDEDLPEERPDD", "assay": "Allosteric modulation of human adenosine A1 receptor transfected in CHO FlpIn cells assessed as orthosteric agonist R-PIA-mediated ERK1/2 phosphorylation at 10 uM pretreated 30 mins before R-PIA challenge measured after 1.5 hrs by fluorescence assay", "assay_type": "functional, cell-based"}, "[2]": {"molecular_target": "T1, Adenosine receptor A1 (Homo sapiens)", "assay": "Allosteric modulation of human adenosine A1 receptor transfected in CHO FlpIn cells assessed as orthosteric agonist R-PIA-mediated ERK1/2 phosphorylation at 3 uM pretreated 30 mins before R-PIA challenge measured after 1.5 hrs by fluorescence assay", "assay_type": "functional, cell-based"}, "[3]": {"molecular_target": "T1, Adenosine receptor A1 (Homo sapiens)", "assay": "[…] at human adenosine A1 receptor transfected in CHO FlpIn cells assessed as potentiation of orthosteric agonist R-PIA-mediated [35S]GTPgammaS binding at 0.1 to 3 uM after 60 mins by liquid scintillation counting", "assay_type": "functional, cell-based"}, "[4]": {"molecular_target": "T1, Adenosine receptor A1 (Homo sapiens)", "assay": "Binding affinity to allosteric site of unoccupied human adenosine A1 receptor transfected in CHO FlpIn cells as potentiation of orthosteric agonist R-PIA-mediated [35S]GTPgammaS binding after 60 mins by liquid scintillation counting", "assay_type": "functional, cell-based"}, "[5]": {"molecular_target": "T1, Adenosine receptor A1 (Homo sapiens)", "assay": "Binding affinity to allosteric site of unoccupied human adenosine A1 receptor transfected in CHO FlpIn cells assessed as potentiation of orthosteric agonist R-PIA-mediated ERK1/2 phosphorylation pretreated 30 mins before R-PIA challenge measured after 1.5 hrs by fluorescence assay", "assay_type": "cell-based"}, "[6]": {"molecular_target": "T1, Adenosine receptor A1 (Homo sapiens)", "assay": "Allosteric modulation of human adenosine A1 receptor transfected in CHO FlpIn cells assessed as orthosteric agonist R-PIA-mediated ERK1/2 phosphorylation at 0.1 to 3 uM pretreated 30 mins before R-PIA challenge measured after 1.5 hrs by fluorescence assay", "assay_type": "functional, cell-based"}}, "note": "The source made the active and inactive calls. The rule behind the calls is not given here."}
{"smiles": "Nc1scc(-c2cccc(Br)c2)c1C(=O)c1ccccc1", "values": [{"measurement": "Activity", "setting": "[1]", "value": 76, "unit": "%"}, {"measurement": "Activity", "setting": "[2]", "value": 67, "unit": "%"}]}
{"smiles": "Nc1scc(-c2ccc(I)cc2)c1C(=O)c1ccccc1", "values": [{"measurement": "Activity", "setting": "[1]", "value": 50, "unit": "%"}, {"measurement": "Activity", "setting": "[2]", "value": 51, "unit": "%"}]}
{"smiles": "Nc1scc(-c2cc(C(F)(F)F)cc(C(F)(F)F)c2)c1C(=O)c1ccc(Cl)cc1", "values": [{"measurement": "Activity", "setting": "[1]", "value": 74, "unit": "%"}, {"measurement": "Activity", "setting": "[2]", "value": 69, "unit": "%"}]}
{"smiles": "Nc1scc(-c2cccc(C(F)(F)F)c2)c1C(=O)c1ccccc1", "values": [{"measurement": "Activity", "setting": "[1]", "value": 59, "unit": "%"}, {"measurement": "Activity", "setting": "[3]", "value": "Active"}, {"measurement": "pKb", "setting": "[4]", "value": 5.96}, {"measurement": "pKb", "setting": "[5]", "value": 6.37}, {"measurement": "Activity", "setting": "[6]", "value": "Active"}, {"measurement": "Activity", "setting": "[2]", "value": 83, "unit": "%"}]}
{"smiles": "COc1cccc(-c2csc(N)c2C(=O)c2ccccc2)c1", "values": [{"measurement": "Activity", "setting": "[1]", "value": 34, "unit": "%"}, {"measurement": "Activity", "setting": "[2]", "value": 41, "unit": "%"}]}
{"smiles": "Nc1scc(-c2cccc([N+](=O)[O-])c2)c1C(=O)c1ccc(Cl)cc1", "values": [{"measurement": "Activity", "setting": "[1]", "value": 42, "unit": "%"}, {"measurement": "Activity", "setting": "[2]", "value": 53, "unit": "%"}]}
{"smiles": "Nc1scc(-c2ccc3ccccc3c2)c1C(=O)c1ccc(Cl)cc1", "values": [{"measurement": "Activity", "setting": "[1]", "value": 67, "unit": "%"}, {"measurement": "Activity", "setting": "[2]", "value": 54, "unit": "%"}]}
{"smiles": "Nc1scc(-c2ccccc2)c1C(=O)c1ccccc1", "values": [{"measurement": "Activity", "setting": "[1]", "value": 48, "unit": "%"}, {"measurement": "Activity", "setting": "[2]", "value": 49, "unit": "%"}]}
{"smiles": "Nc1scc(-c2ccc(Cl)cc2)c1C(=O)c1ccc(Cl)cc1", "values": [{"measurement": "Activity", "setting": "[1]", "value": 50, "unit": "%"}, {"measurement": "Activity", "setting": "[2]", "value": 50, "unit": "%"}]}
{"smiles": "Nc1scc(-c2ccc(Cl)cc2)c1C(=O)c1ccccc1", "values": [{"measurement": "Activity", "setting": "[1]", "value": 51, "unit": "%"}, {"measurement": "Activity", "setting": "[2]", "value": 46, "unit": "%"}]}
{"smiles": "Nc1scc(-c2cccc([N+](=O)[O-])c2)c1C(=O)c1ccccc1", "values": [{"measurement": "Activity", "setting": "[1]", "value": 50, "unit": "%"}, {"measurement": "Activity", "setting": "[2]", "value": 47, "unit": "%"}]}
{"smiles": "Nc1scc(-c2ccc([N+](=O)[O-])cc2)c1C(=O)c1ccc(Cl)cc1", "values": [{"measurement": "Activity", "setting": "[1]", "value": 52, "unit": "%"}, {"measurement": "Activity", "setting": "[2]", "value": 47, "unit": "%"}]}
{"smiles": "Nc1scc(-c2ccc(I)cc2)c1C(=O)c1ccc(Cl)cc1", "values": [{"measurement": "Activity", "setting": "[1]", "value": 61, "unit": "%"}, {"measurement": "Activity", "setting": "[2]", "value": 54, "unit": "%"}]}
{"smiles": "Nc1scc(-c2ccc3ccccc3c2)c1C(=O)c1ccccc1", "values": [{"measurement": "Activity", "setting": "[1]", "value": 73, "unit": "%"}, {"measurement": "Activity", "setting": "[2]", "value": 55, "unit": "%"}]}
{"smiles": "COc1ccc(-c2csc(N)c2C(=O)c2ccc(Cl)cc2)cc1", "values": [{"measurement": "Activity", "setting": "[1]", "value": 55, "unit": "%"}, {"measurement": "Activity", "setting": "[2]", "value": 51, "unit": "%"}]}
{"smiles": "Nc1scc(-c2ccc(F)cc2)c1C(=O)c1ccccc1", "values": [{"measurement": "Activity", "setting": "[1]", "value": 60, "unit": "%"}, {"measurement": "Activity", "setting": "[2]", "value": 51, "unit": "%"}]}
{"smiles": "Nc1scc(-c2ccc(Br)cc2)c1C(=O)c1ccc(Cl)cc1", "values": [{"measurement": "Activity", "setting": "[1]", "value": 46, "unit": "%"}, {"measurement": "Activity", "setting": "[2]", "value": 45, "unit": "%"}]}
{"smiles": "Nc1scc(-c2cc(C(F)(F)F)cc(C(F)(F)F)c2)c1C(=O)c1ccccc1", "values": [{"measurement": "Activity", "setting": "[1]", "value": 93, "unit": "%"}, {"measurement": "Activity", "setting": "[3]", "value": "Active"}, {"measurement": "pKb", "setting": "[4]", "value": 5.82}, {"measurement": "pKb", "setting": "[5]", "value": 5.22}, {"measurement": "Activity", "setting": "[6]", "value": "Active"}, {"measurement": "Activity", "setting": "[2]", "value": 83, "unit": "%"}]}
{"smiles": "Nc1scc(-c2ccccc2F)c1C(=O)c1ccccc1", "values": [{"measurement": "Activity", "setting": "[1]", "value": 68, "unit": "%"}, {"measurement": "Activity", "setting": "[2]", "value": 55, "unit": "%"}]}
{"smiles": "Nc1scc(-c2cccc(Cl)c2)c1C(=O)c1ccc(Cl)cc1", "values": [{"measurement": "Activity", "setting": "[1]", "value": 75, "unit": "%"}, {"measurement": "Activity", "setting": "[2]", "value": 58, "unit": "%"}]}
{"smiles": "Nc1scc(-c2cccc(Br)c2)c1C(=O)c1ccc(Cl)cc1", "values": [{"measurement": "Activity", "setting": "[1]", "value": 69, "unit": "%"}, {"measurement": "Activity", "setting": "[2]", "value": 62, "unit": "%"}]}
{"smiles": "Nc1scc(-c2cccc(Cl)c2)c1C(=O)c1ccccc1", "values": [{"measurement": "Activity", "setting": "[1]", "value": 52, "unit": "%"}, {"measurement": "Activity", "setting": "[2]", "value": 45, "unit": "%"}]}
{"smiles": "COc1ccc(-c2csc(N)c2C(=O)c2ccccc2)cc1", "values": [{"measurement": "Activity", "setting": "[1]", "value": 52, "unit": "%"}, {"measurement": "Activity", "setting": "[2]", "value": 52, "unit": "%"}]}
{"smiles": "Nc1scc(-c2cccc(C(F)(F)F)c2)c1C(=O)c1ccc(Cl)cc1", "values": [{"measurement": "Activity", "setting": "[1]", "value": 73, "unit": "%"}, {"measurement": "Activity", "setting": "[2]", "value": 64, "unit": "%"}]}
{"smiles": "COc1cccc(-c2csc(N)c2C(=O)c2ccc(Cl)cc2)c1", "values": [{"measurement": "Activity", "setting": "[1]", "value": 60, "unit": "%"}, {"measurement": "Activity", "setting": "[2]", "value": 58, "unit": "%"}]}
{"smiles": "Nc1scc(-c2ccc([N+](=O)[O-])cc2)c1C(=O)c1ccccc1", "values": [{"measurement": "Activity", "setting": "[1]", "value": 47, "unit": "%"}, {"measurement": "Activity", "setting": "[2]", "value": 50, "unit": "%"}]}
{"smiles": "Nc1scc(-c2ccccc2)c1C(=O)c1ccc(Cl)cc1", "values": [{"measurement": "Activity", "setting": "[1]", "value": 64, "unit": "%"}, {"measurement": "Activity", "setting": "[2]", "value": 51, "unit": "%"}]}
{"smiles": "Nc1scc(-c2ccc(Br)cc2)c1C(=O)c1ccccc1", "values": [{"measurement": "Activity", "setting": "[1]", "value": 49, "unit": "%"}, {"measurement": "Activity", "setting": "[2]", "value": 46, "unit": "%"}]}
{"smiles": "Nc1scc(-c2cccc(F)c2)c1C(=O)c1ccccc1", "values": [{"measurement": "Activity", "setting": "[1]", "value": 52, "unit": "%"}, {"measurement": "Activity", "setting": "[2]", "value": 51, "unit": "%"}]}
{"smiles": "Nc1scc(-c2ccc(F)cc2)c1C(=O)c1ccc(Cl)cc1", "values": [{"measurement": "Activity", "setting": "[1]", "value": 61, "unit": "%"}, {"measurement": "Activity", "setting": "[2]", "value": 62, "unit": "%"}]}
{"smiles": "Nc1scc(-c2cccc(F)c2)c1C(=O)c1ccc(Cl)cc1", "values": [{"measurement": "Activity", "setting": "[1]", "value": 90, "unit": "%"}, {"measurement": "Activity", "setting": "[2]", "value": 76, "unit": "%"}]}
{"smiles": "Nc1scc(-c2ccccc2F)c1C(=O)c1ccc(Cl)cc1", "values": [{"measurement": "Activity", "setting": "[1]", "value": 87, "unit": "%"}, {"measurement": "Activity", "setting": "[2]", "value": 70, "unit": "%"}]}
